Experimental data published in patent US20030120046A1, “Radioisotope-labeled complexes of glucose derivatives and kits for the preparation thereof” (priority 2000, published 2003).
Read-outs that look alike come from different tables or passages of the source.

Key:
VX-2 tumor cells = conditions: for Normal region counts / Tumor counts: 1.5 mCi i.v.
Procedure: Further, ^99mTc-labeled radiopharmaceuticals were tested for their stability in a physiological saline and the human plasma with the lapse of time (see Example 4). […] The radiopharmaceuticals of the present invention were tested for biodistribution and the uptake level in rabbits transplanted with VX-2 tumor cells and then, compared with ^99mTc-MIBI currently used for imaging tumor in nuclear medicine (see Example 5). More specifically, ^99mTc-labeled glucose derivatives were injected to rabbits transplanted with tumor cells to obtain image using gamma camera. Then, the organs were removed to measure biodistribution and the uptake level of radiopharmaceuticals by calculating % ID (injected dose)/g, indicative of the uptake level of the injected radiopharmaceuticals per weight of tissues.
VX-2 tumor cells were ground in 2 ml of a physiological saline and then, transplanted via intramuscular injection to the right thigh muscle of three rabbits (New Zealand White species) weighing 2.5 to 3 kg using a syringe. Then, the rabbits were bred for 3 weeks to grow tumor to have a diameter of 2 to 3 cm. […] After injection, the rabbits were laid down under gamma camera and the gamma camera was controlled to cover the whole body and images were obtained for 15 minutes at 1 and 3 hours after injection, respectively.
The image of ^99mTc-MIBI was obtained at 10 minutes after injection. […] It is conventional that the standardized imaging time cannot be applied for radiopharmaceuticals since their physical, chemical and physiological properties all are different. Thus, the optimal imaging time may be set depending upon the employed radiopharmaceutical.
After obtaining image of the regions of interest, the uptake level of radioactivity was calculated from counts (unit of radioactivity) obtained by a particular program equipped with a gamma camera.

tumor = conditions: background art, in words; cited from earlier work
[1] = Stability test of radiopharmaceuticals in a physiological saline (purity by TLC); format: physicochemical; conditions: room temperature, mean of 3 experiments
Procedure: (§1) The stability of radiopharmaceuticals was expressed as the purity of radiopharmaceutical at a given time, and measured after 0, 2, 4 and 6 hrs in a physiological saline and the human plasma, respectively. […] After well stirring the ingredients in each vial, the stability was measured at given times at room temperature.
(§2) The stability was measured as follows. 5 μl of each radiopharmaceutical was deposited in the lower part of TLC and was developed using methyl ethyl ketone (or acetone) and 0.9% physiological saline, respectively. Upon completion of development, each TLC was equally divided into 2 parts and the radioactivity of each part was measured using gamma counter. The stability was calculated by measurement of the purity from the obtained radioactivity. […] The purity of radiopharmaceuticals is calculated as follows.
(§3) 100%−[(radioactivity in the upper part of TLC developed with acetone÷radioactivity in the whole TLC developed with acetone)+(radioactivity in the lower part of TLC developed with 0.9% physiological saline÷radioactivity in the whole TLC developed with 0.9% physiological saline)]×100%

[2] = Stability test of radiopharmaceuticals in the human plasma (purity by TLC); format: in vitro ADME; conditions: room temperature, mean of 3 experiments
Procedure: as §1, §2, §3

[3] = anterior image, 10 minutes after injection (footnote)
[4] = posterior image, 10 minutes after injection (footnote)

Work on `[99Tc].[C-]#[N+]CC(C)(C)OC.[C-]#[N+]CC(C)(C)OC.[C-]#[N+]CC(C)(C)OC.[C-]#[N+]CC(C)(C)OC.[C-]#[N+]CC(C)(C)OC.[C-]#[N+]CC(C)(C)OC` [^99mTc-MIBI, ^99mTc-MIBI (methoxy isobutyl isonitrile)] yielded a Tumor/Normal ratio (VX-2 tumor cells; [3]) of 1.7, a Normal region counts (VX-2 tumor cells; [3]) of 5829 counts and a Tumor counts (VX-2 tumor cells; [3]) of 9931 counts. For the same compound, the “Tumor uptake/normal region uptake ratio” value (VX-2 tumor cells; anterior image, 10 minutes after injection (footnote), Mean ± S.D. from 3 experiments) was 2.22 ± 0.87, the wash-out in vivo (VX-2 tumor cells; image cannot be practically obtained at 30 minutes or more after injection, in words) was “rapidly washed out” and the Tumor/Normal ratio (VX-2 tumor cells; [4]) was 2.0. The Normal region counts (VX-2 tumor cells; [4]) was 6566 counts, the Tumor counts (VX-2 tumor cells; [4]) was 13047 counts and the “uptake rate in the abdomen” value (tumor) was “high”. For the same compound, the “uptake rate in tumor” value (tumor) was “unsatisfactory” and the “wash-out rate in vivo” value (tumor) was “high”.

With ^99mTc-glucosamine the “Purity of radiopharmaceuticals at given times” value (“Purity of radiopharmaceuticals” for short) ([1]; 0 h) was 99.5%, the “Purity of radiopharmaceuticals” value ([1]; 2 h) was 98.9% and the “Purity of radiopharmaceuticals” value ([1]; 4 h) was 98.0%. For the same compound, the “Purity of radiopharmaceuticals” value ([1]; 6 h) was 97.6%, the “Purity of radiopharmaceuticals” value ([2]; 0 h) was 99.5% and the “Purity of radiopharmaceuticals” value ([2]; 2 h) was 95.4%. The “Purity of radiopharmaceuticals” value ([2]; 4 h) was 95.0% and the “Purity of radiopharmaceuticals” value ([2]; 6 h) was 92.4%.
